# Test results as given in ChEMBL document CHEMBL3400068, “Novel arylazopyrazole inhibitors of cyclin-dependent kinases” (Bioorg Med Chem, 2015).
# pIC50: −log10 of the molar value. The source made the active and inactive calls. The rule behind the calls is not given here.
# Tests used:
# [1] = system: RPMI-8226; assay: Cytotoxicity against human RPMI8226 cells after 72 hrs by calcein AM staining-based fluorescence assay; type: functional, cell-based; conditions: RPMI-8226, 72 h
# [2] = system: K562; assay: Cytotoxicity against human K562 cells after 72 hrs by calcein AM staining-based fluorescence assay; type: functional, cell-based; conditions: K562, 72 h
# [3] = system: MCF7; assay: Cytotoxicity against human MCF7 cells after 72 hrs by calcein AM staining-based fluorescence assay; type: functional, cell-based; conditions: MCF7, 72 h
# [4] = molecular target: Cyclin-dependent kinase 2/cyclin E1 (Homo sapiens, UniProt P24941); assay: Inhibition of CDK2/cyclin E (unknown origin) expressed in baculovirus infected Sf9 cells
# [5] = system: MCF7; assay: Cell cycle arrest in 8 hrs thymidine-synchronized human MCF7 cells assessed as inhibition of re-entry to cell cycle at 5 to 10 uM after 16 hrs by propidium iodide staining-based flow cytometry; type: functional
# [6] = system: MCF7; assay: Cell cycle arrest in 24 hrs thymidine-synchronized human MCF7 cells assessed as inhibition of re-entry to cell cycle at 5 to 10 uM after 16 hrs by propidium iodide staining-based flow cytometry; type: functional
# [7] = Cell cycle arrest in human RPMI8226 cells assessed as accumulation at S phase at 100 uM after 24 hrs by propidium iodide staining-based flow cytometry (reference value: 53%); type: functional; conditions: RPMI-8226
# [8] = system: RPMI-8226; assay: Induction of apoptosis in human RPMI8226 cells assessed as increase in caspase 9 activity at 25 to 100 uM after 24 hrs by fluorescence assay; type: functional, cell-based
# [9] = system: RPMI-8226; assay: Induction of apoptosis in human RPMI8226 cells assessed as caspase 7 activation at 25 to 100 uM after 24 hrs by immunoblot analysis; type: functional, cell-based
# [10] = system: MCF7; assay: Cell cycle arrest in human MCF7 cells assessed as accumulation at subG1 phase at 40 uM after 24 hrs by propidium iodide staining-based flow cytometry (reference value: 0.6%); type: functional
# [11] = system: MCF7; assay: Cell cycle arrest in 8 hrs thymidine-synchronized human MCF7 cells assessed as delay in cell cycle progression at 12.5 to 25 uM after 16 hrs by propidium iodide staining-based flow cytometry; type: functional
# [12] = system: RPMI-8226; assay: Induction of apoptosis in human RPMI8226 cells assessed as caspase 3 activation at 25 to 100 uM after 24 hrs by immunoblot analysis; type: functional, cell-based
# [13] = system: MCF7; assay: Cell cycle arrest in human MCF7 cells assessed as accumulation at G1 phase at 40 uM after 24 hrs by propidium iodide staining-based flow cytometry (reference value: 61.9%); type: functional
# [14] = system: MCF7; assay: Cell cycle arrest in 24 hrs thymidine-synchronized human MCF7 cells assessed as delay in cell cycle progression at 12.5 to 25 uM after 16 hrs by propidium iodide staining-based flow cytometry; type: functional
# [15] = Cell cycle arrest in human RPMI8226 cells assessed as accumulation at subG1 phase at 100 uM after 24 hrs by propidium iodide staining-based flow cytometry (reference value: 9.8%); type: functional; conditions: RPMI-8226
# [16] = system: MCF7; assay: Cell cycle arrest in human MCF7 cells assessed as accumulation at S phase at 40 uM after 24 hrs by propidium iodide staining-based flow cytometry (reference value: 28.3%); type: functional
# [17] = system: MCF7; assay: Cell cycle arrest in human MCF7 cells assessed as accumulation at G2/M phase at 40 uM after 24 hrs by propidium iodide staining-based flow cytometry (reference value: 9.8%); type: functional
# [18] = molecular target: Cyclin-dependent kinase 1/cyclin B1 (Homo sapiens, UniProt P06493); assay: Inhibition of CDK1/cyclin B (unknown origin) expressed in baculovirus infected Sf9 cells
# Sequence of Cyclin-dependent kinase 1/cyclin B1 (P06493 whole entry): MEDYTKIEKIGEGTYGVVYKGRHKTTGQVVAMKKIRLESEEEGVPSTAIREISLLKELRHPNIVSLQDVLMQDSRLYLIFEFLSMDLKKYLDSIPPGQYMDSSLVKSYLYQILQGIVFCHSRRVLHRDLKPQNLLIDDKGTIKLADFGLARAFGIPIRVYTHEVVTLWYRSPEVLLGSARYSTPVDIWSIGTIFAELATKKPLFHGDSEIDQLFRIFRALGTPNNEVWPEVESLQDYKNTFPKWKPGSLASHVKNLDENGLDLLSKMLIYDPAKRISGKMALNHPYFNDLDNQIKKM
# Sequence of Cyclin-dependent kinase 1/cyclin B1 (P14635 whole entry, further chain): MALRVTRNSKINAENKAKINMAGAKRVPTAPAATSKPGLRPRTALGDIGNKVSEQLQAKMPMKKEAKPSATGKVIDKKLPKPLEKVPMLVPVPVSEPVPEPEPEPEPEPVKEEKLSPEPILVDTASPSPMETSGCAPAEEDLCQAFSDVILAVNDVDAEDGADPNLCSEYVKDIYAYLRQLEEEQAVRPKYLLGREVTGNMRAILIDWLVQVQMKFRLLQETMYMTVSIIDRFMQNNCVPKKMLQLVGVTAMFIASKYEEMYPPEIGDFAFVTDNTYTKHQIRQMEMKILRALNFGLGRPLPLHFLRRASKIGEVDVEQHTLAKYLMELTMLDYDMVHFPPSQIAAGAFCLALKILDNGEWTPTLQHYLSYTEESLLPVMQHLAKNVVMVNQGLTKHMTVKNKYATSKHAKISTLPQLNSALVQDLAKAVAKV
# [19] = system: K562; assay: Cell cycle arrest in human K562 cells assessed as accumulation at G2/M phase at 100 uM after 24 hrs by propidium iodide staining-based flow cytometry (reference value: 25.8%); type: functional
# [20] = Cell cycle arrest in human RPMI8226 cells assessed as accumulation at G2/M phase at 100 uM after 24 hrs by propidium iodide staining-based flow cytometry (reference value: 24.8%); type: functional; conditions: RPMI-8226
# [21] = system: RPMI-8226; assay: Induction of apoptosis in human RPMI8226 cells assessed as PARP-1 cleavage at 25 to 100 uM after 24 hrs by immunoblot analysis; type: functional, cell-based
# [22] = system: RPMI-8226; assay: Induction of apoptosis in human RPMI8226 cells assessed as increase in caspase 3 activity at 25 to 100 uM after 24 hrs by fluorescence assay; type: functional, cell-based
# [23] = system: K562; assay: Cell cycle arrest in human K562 cells assessed as accumulation at S phase at 100 uM after 24 hrs by propidium iodide staining-based flow cytometry (reference value: 47.9%); type: functional
# [24] = system: K562; assay: Cell cycle arrest in human K562 cells assessed as accumulation at G1 phase at 100 uM after 24 hrs by propidium iodide staining-based flow cytometry (reference value: 26.3%); type: functional
# [25] = molecular target: Cyclin-dependent kinase 7/ cyclin H (Homo sapiens, UniProt P50613); assay: Inhibition of CDK7/cyclin H (unknown origin) expressed in baculovirus infected Sf9 cells
# Sequence of Cyclin-dependent kinase 7/ cyclin H (P51946 whole entry): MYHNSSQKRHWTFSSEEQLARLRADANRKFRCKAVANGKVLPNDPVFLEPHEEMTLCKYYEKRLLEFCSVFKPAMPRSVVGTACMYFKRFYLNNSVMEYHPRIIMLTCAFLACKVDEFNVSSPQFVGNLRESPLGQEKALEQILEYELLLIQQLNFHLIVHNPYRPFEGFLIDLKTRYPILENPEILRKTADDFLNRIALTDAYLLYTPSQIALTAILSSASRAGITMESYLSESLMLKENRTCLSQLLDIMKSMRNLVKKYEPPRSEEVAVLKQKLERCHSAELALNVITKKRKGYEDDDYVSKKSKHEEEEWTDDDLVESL
# Sequence of Cyclin-dependent kinase 7/ cyclin H (P50613 whole entry): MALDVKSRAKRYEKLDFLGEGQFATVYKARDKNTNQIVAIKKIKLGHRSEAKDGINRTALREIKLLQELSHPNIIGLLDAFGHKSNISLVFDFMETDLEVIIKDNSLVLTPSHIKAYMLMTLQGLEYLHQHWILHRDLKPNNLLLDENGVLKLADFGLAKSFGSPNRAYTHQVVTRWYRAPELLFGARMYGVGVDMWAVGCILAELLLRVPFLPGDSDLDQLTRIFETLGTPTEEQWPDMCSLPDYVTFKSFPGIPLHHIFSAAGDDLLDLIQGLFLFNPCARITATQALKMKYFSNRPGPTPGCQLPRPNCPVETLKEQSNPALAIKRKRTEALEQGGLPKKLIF
# [26] = molecular target: Cyclin-dependent kinase 4/cyclin D1 (Homo sapiens, UniProt P11802); assay: Inhibition of CDK4/cyclin D1 (unknown origin) expressed in baculovirus infected Sf9 cells
# Sequence of Cyclin-dependent kinase 4/cyclin D1 (P11802 whole entry): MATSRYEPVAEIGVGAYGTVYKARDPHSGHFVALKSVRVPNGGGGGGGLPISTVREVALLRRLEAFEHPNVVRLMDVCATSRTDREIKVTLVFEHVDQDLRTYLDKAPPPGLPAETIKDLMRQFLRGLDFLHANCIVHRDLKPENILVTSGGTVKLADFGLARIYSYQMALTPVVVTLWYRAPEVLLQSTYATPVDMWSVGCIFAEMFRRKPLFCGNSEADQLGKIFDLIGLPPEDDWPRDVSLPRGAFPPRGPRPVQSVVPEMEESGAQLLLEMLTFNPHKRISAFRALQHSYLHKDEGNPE
# Sequence of Cyclin-dependent kinase 4/cyclin D1 (P24385 whole entry, further chain): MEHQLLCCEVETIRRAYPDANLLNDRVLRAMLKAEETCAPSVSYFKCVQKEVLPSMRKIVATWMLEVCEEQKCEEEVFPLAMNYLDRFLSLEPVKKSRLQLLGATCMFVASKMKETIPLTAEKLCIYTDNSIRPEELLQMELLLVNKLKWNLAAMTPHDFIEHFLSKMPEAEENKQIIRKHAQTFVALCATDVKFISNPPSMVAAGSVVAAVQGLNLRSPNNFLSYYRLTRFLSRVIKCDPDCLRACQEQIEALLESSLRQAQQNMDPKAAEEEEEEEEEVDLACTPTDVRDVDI
# [27] = Cell cycle arrest in human RPMI8226 cells assessed as accumulation at G1 phase at 100 uM after 24 hrs by propidium iodide staining-based flow cytometry (reference value: 22.2%); type: functional; conditions: RPMI-8226
# [28] = system: K562; assay: Cell cycle arrest in human K562 cells assessed as accumulation at subG1 phase at 100 uM after 24 hrs by propidium iodide staining-based flow cytometry (reference value: 2.3%); type: functional
# [29] = system: MCF7; assay: Cell cycle arrest in 24 hrs serum-deprived human asynchronous MCF7 cells assessed as inhibition of re-entry to G1 phase at 6.25 to 25 uM after 16 hrs by propidium iodide staining-based flow cytometry; type: functional
# [30] = molecular target: CDK9/cyclin T1 (Homo sapiens, UniProt P50750); assay: Inhibition of CDK9/cyclin T1 (unknown origin) expressed in baculovirus infected Sf9 cells
# Sequence of CDK9/cyclin T1 (O60563 whole entry): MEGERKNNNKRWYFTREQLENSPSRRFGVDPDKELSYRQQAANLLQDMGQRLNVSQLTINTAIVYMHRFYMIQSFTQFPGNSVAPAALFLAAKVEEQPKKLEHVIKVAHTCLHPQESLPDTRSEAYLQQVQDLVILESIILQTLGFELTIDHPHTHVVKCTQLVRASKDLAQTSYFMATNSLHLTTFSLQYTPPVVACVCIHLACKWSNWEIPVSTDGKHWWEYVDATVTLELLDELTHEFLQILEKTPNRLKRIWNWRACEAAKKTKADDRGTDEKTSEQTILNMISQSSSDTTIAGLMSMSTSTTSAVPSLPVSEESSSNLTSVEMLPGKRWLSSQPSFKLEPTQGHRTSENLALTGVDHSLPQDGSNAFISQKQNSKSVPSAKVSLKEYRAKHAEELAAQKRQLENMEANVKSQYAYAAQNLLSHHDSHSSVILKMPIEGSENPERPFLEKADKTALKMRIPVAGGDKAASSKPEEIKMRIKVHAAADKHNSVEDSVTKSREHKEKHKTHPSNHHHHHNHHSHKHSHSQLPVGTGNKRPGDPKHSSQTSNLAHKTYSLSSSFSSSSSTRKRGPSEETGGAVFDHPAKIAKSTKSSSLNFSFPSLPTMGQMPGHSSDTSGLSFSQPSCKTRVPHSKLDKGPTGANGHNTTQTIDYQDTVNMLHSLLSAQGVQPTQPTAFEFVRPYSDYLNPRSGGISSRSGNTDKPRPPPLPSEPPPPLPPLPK
# Sequence of CDK9/cyclin T1 (P50750 whole entry): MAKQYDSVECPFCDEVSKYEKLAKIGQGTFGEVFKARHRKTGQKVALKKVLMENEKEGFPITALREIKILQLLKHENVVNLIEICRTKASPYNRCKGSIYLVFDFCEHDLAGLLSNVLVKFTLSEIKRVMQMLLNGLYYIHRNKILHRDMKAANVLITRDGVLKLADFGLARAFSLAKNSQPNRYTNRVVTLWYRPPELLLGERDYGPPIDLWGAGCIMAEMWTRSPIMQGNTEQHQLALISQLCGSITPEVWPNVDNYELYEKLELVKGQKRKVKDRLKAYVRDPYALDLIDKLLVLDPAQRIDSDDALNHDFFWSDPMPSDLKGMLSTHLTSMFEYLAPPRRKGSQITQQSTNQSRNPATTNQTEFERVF
smiles,measurement,setting,value
Cn1nc(N)c(/N=N/c2ccc(O)cc2)c1N,pIC50,[1],< 4.00
same,pIC50,[2],4.01
same,pIC50,[3],< 4.00
same,pIC50,[4],< 4.30
CCn1cnc2c(Nc3cccc(Cl)c3)nc(N[C@@H]3CCCC[C@@H]3N)nc21,inhibition,[5],Active
same,inhibition,[6],Active
Nc1nn(C(=O)c2cccs2)c(N)c1/N=N/c1ccc(O)cc1,pIC50,[1],< 4.00
same,pIC50,[2],< 4.60
same,pIC50,[3],< 4.60
same,pIC50,[4],< 4.60
Nc1n[nH]c(N)c1/N=N/c1ccc(O)cc1,pIC50,[1],4.60
same,pIC50,[2],4.48
same,pIC50,[3],4.21
Nc1nn(C(=O)c2ccc([N+](=O)[O-])cc2)c(N)c1/N=N/c1ccc(O)cc1,pIC50,[1],< 4.00
same,pIC50,[2],< 4.60
same,pIC50,[3],< 4.60
same,pIC50,[4],4.82
CCOC(=O)n1nc(N)c(/N=N/c2ccc(O)cc2)c1N,pIC50,[1],< 4.00
same,pIC50,[2],< 4.00
same,pIC50,[3],< 4.00
same,pIC50,[4],< 4.30
Nc1n[nH]c(N)c1/N=N/c1ccncc1,pIC50,[1],5.21
same,pIC50,[2],4.77
same,pIC50,[3],5.37
Cn1nc(N)c(/N=N/c2ccncc2)c1N,Activity,[7],39.8%
same,Activity,[8],Active
same,Activity,[9],Active
same,pIC50,[1],4.30
same,Activity,[10],1%
same,Activity,[11],Active
same,Activity,[12],Active
same,Activity,[13],50.6%
same,Activity,[14],Active
same,Activity,[15],57.7%
same,pIC50,[2],4.17
same,Activity,[16],15.8%
same,Activity,[17],33.5%
same,pIC50,[3],4.42
same,pIC50,[18],4.95
same,Activity,[19],35.4%
same,Activity,[20],28.9%
same,Activity,[21],Active
same,Activity,[22],Active
same,Activity,[23],31.4%
same,Activity,[24],33.2%
same,pIC50,[25],< 4.30
same,pIC50,[4],4.77
same,pIC50,[26],6.38
same,Activity,[27],31.3%
same,Activity,[28],6.5%
same,Activity,[29],Active
same,pIC50,[30],5.87
Nc1n[nH]c(N)c1/N=N/c1cccc[n+]1[O-],pIC50,[1],< 4.00
same,pIC50,[2],4.20
same,pIC50,[3],< 4.00
same,pIC50,[4],< 4.00
Nc1n[nH]c(N)c1/N=N/c1cc[n+]([O-])cc1,pIC50,[1],< 4.00
same,pIC50,[2],< 4.00
same,pIC50,[3],< 4.00
same,pIC50,[4],4.76
CC(=O)n1nc(N)c(/N=N/c2ccc(O)cc2)c1N,pIC50,[1],< 4.00
same,pIC50,[2],4.19
same,pIC50,[3],4.35
same,pIC50,[4],4.37
